Here are results for three compounds from patent US10945978B2, “Treatment and diagnosis of melanoma” (The Rockefeller University, priority 2012, dated 2021).

Structures can show the parent of a compound that is named as a salt.

The subject of test [1] is MeWo, MeWo-LM2, HT-144, SK-Mel-2 and SK-Mel-334.2 human melanoma cells. Briefly: Trans-well matrigel cell invasion assay, melanoma cells. Type of test: cell-based. To be noted: for ability of melanoma cells to invade through matrigel: MeWo, HT-144, SK-Mel-2, SK-Mel-334.2, 1 μM for 72 hours. As for the experimental part:
Cancer cells were serum-starved in 0.2% FBS DMEM-based media for 12 hours. Trans-well invasion chambers (354480, BD Biosciences, Bedford, Mass.) were pre-equilibrated prior to beginning the assay by adding 0.5 mL of starvation media to the top and bottom chambers. After 30 minutes, the media in the top chamber was removed, and 0.5 mL of media containing 1×10^5 cancer cells was added into each matrigel-coated trans-well insert and incubated at 37° C. for 24 hours. For neutralization antibody and/or recombinant protein experiments, antibody/recombinant protein was added to each well at the start of the assay at the following concentrations as indicated in the figures: 5-40 μg/mL anti-ApoE 1D7 (Heart Institute, University of Ottawa), 5-40 μg/mL anti-IgG (AB-108-C, R&D Systems, Minneapolis, Minn.), 100 μM recombinant human ApoE3 (4696, BioVision, Mountain View, Calif.), and 100 μM BSA (A2153, Sigma-Aldrich). Upon completion of the assay, matrigel-coated inserts were washed with PBS, the cells at the top side of each insert were scraped off, and the inserts were fixed in 4% paraformaldehyde for 15 minutes. The inserts were then cut out and mounted onto slides using VectaShield mounting medium containing DAPI (H-1000, Vector Laboratories, Burlingame, Calif.). The basal side of each insert was imaged using an inverted fluorescence microscope (Zeiss Axiovert 40 CFL) at 5× magnification, taking three representative images for each insert. The number of invaded cells was quantified using ImageJ (NIH).
The cell invasion assay was performed as previously described in detail (Pencheva et al., 2012) using a trans-well matrigel invasion chamber system (354480, BD Biosciences). In brief, various melanoma cells were cultured in the presence of DMSO, GW3965, T0901317, or Bexarotene at 1 μM for 56 hours, after which melanoma cells were switched to starvation media (0.2% FBS) for 16 hours in the presence of each drug. Following starvation, cells were seeded into matrigel-coated trans-well inserts, and the invasion assay was allowed to proceed for 24 hours at 37° C. For ApoE antibody neutralization experiments, 40 μg/mL 1D7 anti-ApoE blocking antibody (Heart Institute, University of Ottawa, Ottawa, Canada) or 40 t g/mL anti-IgG control antibody (AB-108-C, R&D Systems, Minneapolis, Minn.) was added to each trans-well insert at the start of the assay.
The cells were then serum starved for 16 hours in 0.2% FBS media in the presence of each corresponding drug or DMSO. Following serum starvation, the cells were subjected to the trans-well invasion assay using a matrigel invasion chamber system (354480, BD Biosciences). Invasion chambers were pre-equilibrated prior to the assay by adding 0.5 mL of starvation media to the top and bottom wells. Meanwhile, cancer cells were trypsinized and viable cells were counted using trypan blue. Cancer cells were then resuspended at a concentration of 2×10^5 cells/1 mL starvation media, and 0.5 mL of cell suspension, containing 1×10^5 cells, was seeded into each trans-well. The invasion assay was allowed to proceed for 24 hours at 37° C. […] Following fixation, the inserts were washed in PBS, cut out, and mounted onto slides using VectaShield mounting medium containing DAPI nuclear stain (H-1000, Vector Laboratories). The basal side of each insert was imaged using an inverted fluorescence microscope (Zeiss Axiovert 40 CFL) at 5× magnification, and the number of DAPI-positive cells was quantified using ImageJ.

Test [2] concerns ApoE promoter fused to ME.1 or ME.2. Briefly: ApoE promoter activity assay (luciferase). To be noted: MeWo cells; 1 μM, 24 hours. The class given is cell-based, human. The source says:
The ApoE promoter, consisting of a sequence spanning 980 base pairs upstream and 93 base pairs downstream of the ApoE gene, was cloned into a pGL3-Basic vector (E1751, Promega Corporation, Madison, Wis.) upstream of the firefly luciferase gene using NheI and SacI restriction enzymes. Then, multi-enhancer elements 1 (ME. 1) and 2 (ME.2) were cloned directly upstream of the ApoE promoter using MluI and SacI restriction enzymes. To assess ApoE promoter- and ME.1/ME.2-driven transcriptional activation by LXR agonists, 5×10^4 MeWo cells were seeded into a 24-well plate. The following day, 100 ng of pGL3-ME. […] To assess transcriptional activation by LXRα or LXR(3, 5×10^4 MeWo cells expressing a control shRNA or shRNA targeting LXRα or LXRβ were seeded into a 24-well plate. The following day, 200 ng of pGL3-ME. 1/ME.2-ApoE promoter construct and 2 ng of pRL-CMV renilla luciferase were co-transfected into cells in the presence of DMSO, GW3965, or T0901317 at 1 μM, each condition in quadruplicate. After 24 hours, cells were lysed, and cell lysate was analyzed for firefly and renilla luciferase activity using the Dual Luciferase Assay System (E1960, Promega) and a Bio-Tek Synergy NEO Microplate Reader. Firefly luciferase signal was normalized to renilla luciferase signal and all data are expressed relative to the luciferase activity ratio measured in the DMSO-treated control cells.

For test [3], the system named is B16F10 mouse melanoma cells. In words: Subcutaneous B16F10 tumor growth in C57BL/6 mice. To be noted: for suppression of tumor growth: 20 mg/kg.
Protocol: Animals were palpated weekly for tumor formation, after which sizeable tumors were measured twice a week. Tumor volume was calculated as (small diameter)^2×(large diameter)/2.
In another test the test system is ApoE. Briefly: ApoE expression in mice fed LXR agonist diet (western blot, qRT-PCR). Type of test: in vivo, mouse. Particulars: 10 days; for ApoE protein expression in systemic adipose, lung, and brain tissues: chow 20 mg/kg, western blot; for ApoE transcript levels in circulating white blood cells: diet 20 mg/kg, qRT-PCR. As for the experimental part:
Mouse lung and brain tissue samples were homogenized on ice in RIPA buffer (Sigma-Aldrich) supplemented with protease inhibitors (Roche). Mouse adipose tissue was homogenized on ice in TNET buffer (1.5 mM Tris pH 7.5, 150 mM NaCl, 2 mM EDTA 1% triton, protease inhibitors). Total protein lysate (2 jag) was separated by SDS-PAGE, transferred to PVDF membrane, and blotted with an anti-mouse ApoE (ab20874, Abcam) and anti-tubulin α/β (2148, Cell Signaling) antibodies. RNA was extracted from whole cell lysates using the Total RNA Purification Kit (17200, Norgen, Thorold, Canada). 600 ng of total RNA was then reverse transcribed into cDNA using the cDNA First-Strand Synthesis Kit (18080-051, Invitrogen), and quantitative real-time PCR amplification was performed as previously described (Pencheva et al., 2012) using an ABI Prism 7900HT Real-Time PCR System (Applied Biosystems, Austin, Tex.). Each PCR reaction was carried out in quadruplicates. Gene expression was normalized to GAPDH, which was used as an endogenous control.
In general terms: In western blotting, separated proteins are transferred to a membrane and probed.

For “recombinant human ApoE: recombinant human ApoE3 (4696, BioVision)”, the invasion result in test [1] (metastatic LM2 cells, recombinant ApoE3 100 μM vs BSA) is “significantly suppressed”.
With `O=S(=O)(c1ccccc1)N(CC(F)(F)F)c1ccc(C(O)(C(F)(F)F)C(F)(F)F)cc1` [T0901317 1], the “activity of luciferase reporter with ApoE promoter fused to ME.1 or ME.2” value in test [2] is recorded as “enhance”. Further, the “suppression of tumor growth” value in test [3] (oral, from tumors of 5-10 mm3) came out at 61%. Moreover, in test [1], the “ability of melanoma cells to invade through matrigel” value was “consistently suppressed”. Moreover, in the test with ApoE, the “ApoE protein expression in systemic adipose, lung, and brain tissues” value is on record as “significantly elevated”; the “ApoE transcript levels in circulating white blood cells” value was “upregulated”.
Turning to `O=C(O)Cc1cccc(OCCCN(Cc2cccc(C(F)(F)F)c2Cl)CC(c2ccccc2)c2ccccc2)c1` [GW3965 2, 3-[3-[N-(2-Chloro-3-trifluoromethylbenzyl)-(2,2-diphenylethyl)amino]propyloxy] phenylacetic acid hydrochloride], the “activity of luciferase reporter with ApoE promoter fused to ME.1 or ME.2” value in test [2] is recorded as “enhance”. In addition, in test [3] (ApoE−/− mice, GW3965 diet 20 mg/kg, 7 days), the “suppression of tumor growth in mice genetically inactivated for ApoE” value was “completely ineffective”. Besides, the “suppression of tumor growth” value in test [3] (oral, from tumors of 5-10 mm3) came to 67%. Moreover, the “reduction in tumor growth” value in test [3] (oral, 100 mg/kg, from tumors of 5-10 mm3) turned out to be 80%. The “reduction in the growth of established large tumors” value in test [3] (tumors ~150 mm3, chow containing GW3965 150 mg/kg) is “roughly 50%”. In addition, the tumor cell invasion entry in test [1] (MeWo cells pre-treated 48 hours) was “decreased”. Further, the “ability of melanoma cells to invade through matrigel” value in test [1] is on record as “consistently suppressed”. Moreover, in the test on ApoE, the “ApoE protein expression in systemic adipose, lung, and brain tissues” value was “significantly elevated”; the “ApoE transcript levels in circulating white blood cells” value is listed as “upregulated”.
